Source: US8404239B2, “Anti-Notch2 NRR antibodies” (Genentech, Inc., priority 2008, dated 2013)

Columns and labels:
Notch1 signaling = test: Co-culture Notch reporter assay, Notch1 signaling (NIH-3T3 Notch1 cells + ligand cells); format: cell-based; conditions: Jag1-induced; α-gD 2000 ng/ml; DAPT 5 μM
Experimental: (§1) NIH-3T3 cells stably transfected with Jag1 were used to induce Notch signaling in NIH-3T3 cells stably transfected with Notch1 (except for “−Jag1”, which used untransfected NIH-3T3 cells in place of the Jag1-expressing cells). […] NIH-3T3 cells stably transfected with Jag1 were used to induce Notch signaling in U87MG cells, which express high levels of Notch2. The assay was performed as described in (A). […] The assay was performed as in (A) except that the receptor-expressing cells were generated by transient transfection of plasmids expressing the indicated Notch1 receptors.
NIH-3T3 cells either stably transfected with Notch 1 or transiently transfected with plasmids containing other Notch receptors were co-transfected with a Notch-responsive TP-1 (12× CSL) Firefly luciferase reporter and a constitutively active Renilla Luciferase reporter (pRL-CMV, Promega) to control for transfection efficiency. […] After 20 hours, firefly and Renilla luciferase are measured with Dual Glo Luciferase Assay system (Promega). Eight replicates were analyzed for each condition by dividing the Firefly signal by the Renilla signal to control for transfection efficiency. The mean and standard deviation were calculated and values were normalized to calculated values for co-culture stimulated with NIH-3T3 cells without ligand transfected.

Notch2 signaling = test: Co-culture Notch reporter assay, Notch2 signaling (U87MG cells + Jag1 cells); format: cell-based; conditions: Jag1-induced; DAPT 5 μM
Experimental: as §1
Co-culture assay in U87MG cells, as described in FIG. 10B.
NIH-3T3 cells either stably transfected with Notch 1 or transiently transfected with plasmids containing other Notch receptors were co-transfected with a Notch-responsive TP-1 (12× CSL) Firefly luciferase reporter and a constitutively active Renilla Luciferase reporter (pRL-CMV, Promega) to control for transfection efficiency. Cells are allowed to recover from the transfection from 6 hours to overnight. Treatments of antibodies and NIH-3T3 cells stably transfected with ligand are used to stimulate the receptor cells. After 20 hours, firefly and Renilla luciferase are measured with Dual Glo Luciferase Assay system (Promega). Eight replicates were analyzed for each condition by dividing the Firefly signal by the Renilla signal to control for transfection efficiency. The mean and standard deviation were calculated and values were normalized to calculated values for co-culture stimulated with NIH-3T3 cells without ligand transfected.

SK23 melanoma cells = test: Cell Titer Glo viability of melanoma cell line SK23; format: cell-based, human; conditions: six days, antibodies 20 mg/ml, DAPT 5 μM, ± Jagged-1
Experimental: (§2) Human melanoma cell lines SK23 and LOX-IMVI were plated in medium containing 2% FBS at low density (4000 cells/well for SK23, 2500 cells/well for LOX-IMVI) in 96 well plates that were coated without (−jag-1) or with Jagged-1 ligand (+jag-1) (R&D Systems, Minneapolis, Minn.). […] An equal volume of DMSO served as the vehicle control, whereas an equal concentration of anti-gD HuB6 phage antibody served as the isotype control antibody. Cell Titer Glo assays (Promega, Madison, Wis.) were performed six days after plating. […] In FIGS. 25A and 25B, cell viability (y-axis) is expressed relative to the values from the DMSO vehicle, −jag-1 control wells.

LOX-IMVI melanoma cells = test: Cell Titer Glo viability of melanoma cell line LOX-IMVI; format: cell-based, human; conditions: six days, antibodies 20 mg/ml, DAPT 5 μM, ± Jagged-1
Experimental: as §2

HUVECs = test: HUVEC fibrin gel bead endothelial cell sprouting assay; format: cell-based, human; conditions: HUVEC co-cultured with skin fibroblasts; 1 μM DBZ, 5 μg/ml antibodies
Experimental: (A) In vitro endothelial cell sprouting assay. HUVECs were coated on Cytodex beads and co-cultured with skin fibroblasts. Cultures were either mock treated (control) or treated with 1 μM of DBZ, 5 μg/ml of α-NRR1 or 5 μg/ml of α-D114. Bar=100 μm. (B) Sprout length measurements from the cultures in (A). (C) Mouse neonate retinal assay for endothelial cell sprouting and angiogenesis. Mouse neonates were injected at P1 and P3 with the indicated antibodies, and retinas were prepared at P5 to visualize perfusion of isolectin or the Ki67 marker for proliferation. Panels I and II, Bar=1 mm. Panels III-VI represent enlargements of part of panels I and II, bar=0.2 mm.
HUVEC cells were grown on fibrin gel beads as previously described (Nakatsu et al., 2003). Cytodex 3 beads (Amersham Pharmacia Biotech) were coated with 350-400 HUVECs per bead in 2 ml EGM-2 medium (Clonetics). About 200 HUVEC coated beads were imbedded in fibrin clot in one well of 12-well tissue culture plate. […] Medium was changed every two days. After seven to nine days, fibrin gels were then fixed with 4% paraformaldehyde and endothelial cells were stained with anti-CD31 (R&D Systems AF806) using a FITC-conjugated secondary antibody for detection.

[1] = tested on: intestinal cell differentiation; test: Histology and immunohistochemistry of mouse intestine tissue; format: in vivo
Excerpt: (A) Total body weight change (mean+/−standard deviation) vs. time. […] Arrows mark the days of dosing. (B) Immunohistochemical analyses of small intestines. […] In each row as indicated, staining is shown for haemotoxylin and eosin (H & E), Alcian Blue for mucin and to mark secretory goblet cells, lysozyme to mark Paneth cells, Ki-67 for proliferation and Hes1 as a Notch downstream target. See FIGS. 19 and 20 for analyses of the large intestine at day 7 and of the small intestine at day 2, respectively. Bar=40 μm. (C) Comparison of Notch1- versus Notch2-specific inhibition on small intestinal cell differentiation. Small intestines from the study described in (A) were prepared for Alcian Blue and Ki-67 one day after the final dosing with α-gD, α-NRR1 or α-NRR2, as indicated. Bar=50 μm.
Formalin-fixed and paraffin-embedded mouse small intestine tissues were sectioned at 3 micron thickness. Histochemical identification of intestinal cell types was performed with Alcian blue as recommended by the manufacturer (PolyScientific). For anti-Ki67 staining, sections were pretreated with Target Retrieval Solution (S1700, DAKO), and incubated with rabbit anti-Ki67 (1:200, clone SP6, Neomarkers). Secondary goat anti-rabbit at 7.5 μg/ml (Vector labs) was detected with the Vectastain ABC Elite Kit (Vector labs). Ki67 stained sections were counterstained with Mayer's haemotoxylin. For anti-lysozyme staining, sections were processed on the Discovery XT platform (Ventana Medical Systems, Inc.) using CC1m epitope recovery conditions, OmniMap-rabbit detection and Ventana haemotoxylin II/with bluing counterstain. For HES-1 staining, anti-rat HES-1 (clone NM1, MBL, International) was followed by TSA-HRP.
The effect of inhibiting both Notch1 and Notch2 on intestinal cell fate determination was also investigated. […] The intestines were harvested and stained with H&E to reveal the crypt morphology. […] Further experimentation confirmed this observation.

Row | Notch signaling (Hes1 staining), large intestine ([1]; day 7) | goblet cell numbers (Alcian Blue and H&E), large intestine ([1]; day 7) | Hes1 expression, small intestine ([1]; day 7, DBZ 30 μmol/kg) | goblet cell population (Alcian Blue), small intestine ([1]; day 7, DBZ 30 μmol/kg) | intestinal cell fate changes at early time point ([1]; small intestine, day 2) | SMILES | effect on Notch1 reporter signaling (Notch1 signaling) | effect on Notch2 reporter signaling (Notch2 signaling) | cell viability (SK23 melanoma cells) | cell viability (LOX-IMVI melanoma cells) | endothelial cell sprouts (number and length) (HUVECs) | progenitor cell proliferation (Ki-67), large intestine ([1]; day 7) | Paneth cells (lysozyme staining), small intestine ([1]; day 7, DBZ 30 μmol/kg) | progenitor cell proliferation (Ki-67), small intestine ([1]; day 7, DBZ 30 μmol/kg)
1 |  |  |  |  |  | C[C@H](NC(=O)Cc1cc(F)cc(F)c1)C(=O)N[C@H](C(=O)OC(C)(C)C)c1ccccc1 [DAPT, reference compound] | reduced to background | reduced to background | decrease in viability | decrease in viability |  |  |  | 
2 | significantly reduced Notch signaling | increased goblet cell numbers | inhibition of Hes1 expression | dramatic expansion | only weakly detectable | C[C@H](NC(=O)Cc1cc(F)cc(F)c1)C(=O)N[C@@H]1C(=O)N(C)c2ccccc2-c2ccccc21 [DBZ] |  |  |  |  | increased both the number and length | blocked progenitor cell proliferation | increased the numbers and/or activity of Paneth cells | decrease in progenitor cell proliferation
